{
  "source": "patent US8758825B2",
  "about": "“Sequestered antagonist formulations” (Purdue Pharma L.P., priority 2001, dated 2014)",
  "key": {"[1]": {"conditions": "cited from earlier work; for Duration of action: after oral doses"}, "[2]": {"conditions": "in comparison to a 15 mg dose of hydrocodone", "from_the_text": "In certain preferred embodiments, the opioid agonist is oxycodone or hydrocodone."}},
  "data": [
    {"smiles": "O=C1CC[C@@]2(O)[C@H]3Cc4ccc(O)c5c4[C@@]2(CCN3CC2CC2)[C@H]1O5", "note": "[naltrexone]", "values": [
      {"measurement": "Duration of action", "setting": "[1]", "result": "~24", "unit": "h"},
      {"measurement": "Protein binding", "setting": "[1]; in vivo", "result": "approximately 21%"},
      {"measurement": "Oral bioavailability", "setting": "[1]; oral administration", "result": "5-40%"},
      {"measurement": "Time of absorption", "setting": "[1]; oral administration", "result": "≤ 1", "unit": "h"}
    ]},
    {"smiles": "COc1ccc2c3c1O[C@H]1C(=O)CC[C@@]4(O)[C@@H](C2)N(C)CC[C@]314", "note": "[Oxycodone, 4,5-expoxy-14-hydroxy-3-methoxy-17-methylmorphinan-6-one]", "values": [
      {"measurement": "Equianalgesic dose, Calculated Dose", "setting": "[2]", "result": 13.5, "unit": "mg"}
    ]},
    {"smiles": "CCC(=O)C(CC(C)N(C)C)(c1ccccc1)c1ccccc1", "note": "(stereo not shown) [Methadone]", "values": [
      {"measurement": "Equianalgesic dose, Calculated Dose", "setting": "[2]", "result": 9.0, "unit": "mg"}
    ]},
    {"smiles": "COc1ccc2c3c1O[C@H]1[C@@H](O)C=C[C@H]4[C@@H](C2)N(C)CC[C@@]341", "note": "[Codeine]", "values": [
      {"measurement": "Equianalgesic dose, Calculated Dose", "setting": "[2]", "result": 90.0, "unit": "mg"}
    ]},
    {"smiles": "COc1ccc2c3c1OC1C(=O)CC[C@H]4[C@@H](C2)N(C)CC[C@]314", "note": "(stereo partly shown) [Hydrocodone, 4,5-epoxy-3-methoxy-17-methylmorphinan-6-one]", "values": [
      {"measurement": "Equianalgesic dose, Calculated Dose", "setting": "[2]", "result": 15.0, "unit": "mg"}
    ]},
    {"smiles": "CN1CC[C@]23CCCC[C@H]2[C@H]1Cc1ccc(O)cc13", "note": "[Levorphanol]", "values": [
      {"measurement": "Equianalgesic dose, Calculated Dose", "setting": "[2]", "result": 1.8, "unit": "mg"}
    ]},
    {"smiles": "C[C@H]1[C@H]2Cc3ccc(O)cc3[C@]1(C)CCN2CC1CC1", "note": "[cyclazocine]", "values": [
      {"measurement": "Duration of action", "setting": "[1]", "result": "~24", "unit": "h"}
    ]}
  ]
}
